Assay results from patent publication US8309550B2, “Kinase inhibitors and their use as pharmaceutical agents” (Shanghai Genomics, Inc., priority 2011, dated 2012).
Where two headings read alike, the source gives them in different places.

How the values were obtained:
[1] = test system: Xenograft tumor models (HT-29, H460, Molt-4, PC-3M, HL60); assay: Xenograft studies with human tumor cell lines; format: in vivo, BALB/c nude mice; details: i.p, qd, 21 days, dosage from 12.5 mg/kg to 100 mg/kg; significant with p<0.05 (T-test)
Description: Female BALB/c nude mice from SHANGHAI SLAC LABORATORY ANIMAL CO with age of 5 to 6 weeks and body weight of 19 to 20 g were used in the study. Autoclaved water and irradiated food were provided ad libitum, and animals were maintained on a 12-hour light and 12-hour dark cycle. Cages, bedding, and water bottles were autoclaved before use and changed weekly. The health of all animals was determined by daily gross observation of experimental animals, and analyses of blood samples of sentinel animals housed on shared shelf racks. All animals were allowed to acclimate and recover from any shipping-related stress for a minimum of 72 hours before experimental use. All animal experiments were conducted according to the guidelines of Chinese.
Xenograft tumor models were established with human tumor cell lines. […] Tumor growth was monitored twice per week until the tumor reached to a volume of 100 mm^3. […]
Mortality checks were conducted daily. Body weight of the mice was determined twice a week. […] Weight loss was calculated as percentage change in mean group body weight using the following formula: [(W−W0)/W0]×100, where ‘W’ represents mean body weight of the treated group at a particular day and ‘W0’ represents mean body weight of the same treated group at initiation of treatment. Tumor volumes (in mm3) were calculated after 21 days drug administration. […]

[2] = Pharmacokinetic determination, rat IV/PO study; format: in vivo; details: for MRT inf: read-out: MRT(0-∞)
Description: Male Sprague-Dawley rats were maintained on food and water ad libitum. They were housed in an individual ventilated caging system. The test compound at a dose of 5 mg/kg and 20 mg/kg was given i.v. and orally to SD rats respectively (3 animals per group). The appropriate quantity compound with free base (Wt.: 346.1) was accurately weighted into a tube and dissolved in NMP, vortexed to get a clear solution. 0.015N HCl in Saline was added and the solution was vortexed to yield a clear and colorless solution at 1 mg/mL for both intravenous and oral administration. The concentration of the test compound in the dosing solution was reconfirmed by HPLC method. […] Plasma samples were collected from retro-orbital puncture at pre-dose and 0.083, 0.25, 0.5, 1, 2, 4, 6, 8, and 24 hours post-dose. All samples and the dose formulation were stored at −20° C. until bioanalysis. The concentrations of the test compound in plasma were determined using a high performance liquid chromatography/mass spectrometry (HPLC/MS/MS) method.

[3] = test system: lung carcinoma (H460); assay: Inhibition of tumor growth, NCI-H460 in SCID-bg mice; format: in vivo; details: oral once a day
Description: Tumor type: lung carcinoma (H460)
Treatment: Single PO dose for 21 days (starting at day 7 following tumor inoculation)
Endpoint: tumor volume and mean luciferase activity by Xenogen (Caliper) machine:
SCID-bg mice were implanted with NCI-H460 cells at 5×10^6 cells/mouse on Day 0. Compound 18 treatment began on Day 7. […] In model group, the vehicle was used instead of compound 18. Tumor volume and mean luciferase activity by Xenogen technology were measured once per there days.

[4] = male, Sprague-Dawley, plasma, IV (5 mg/kg)
[5] = male, Sprague-Dawley, plasma, PO (20 mg/kg)

| SMILES | anti-tumor activities in xenograft mice [1] | F* ([2]; PO (20 mg/kg) vs IV (5 mg/kg)) | AUC(0-inf) [2, 4] | AUC(0-t) [2, 4] | Cmax [2, 4] | Tmax [2, 4] | clearance [2, 4] | half-life [2, 4] | MRT inf [2, 4] | Vd ([2]; male, Sprague-Dawley, plasma, IV (5 mg/kg), read-out: Vz) | AUC(0-inf) [2, 5] | AUC(0-t) [2, 5] | Cmax [2, 5] | Tmax [2, 5] | half-life [2, 5] | MRT inf [2, 5] | oral availability and t 1/2 after oral administration (in words) ([2]; oral administration) | % Tumor Growth Inhibition at Day 21 ([3]; 20 mg/kg) | % Tumor Growth Inhibition at Day 21 ([3]; 150 mg/kg) |
| --- | --- | --- | --- | --- | --- | --- | --- | --- | --- | --- | --- | --- | --- | --- | --- | --- | --- | --- | --- |
| CCCn1cc(-c2ccnc(Nc3ccc(C)c(S(=O)(=O)N4CCOCC4)c3)n2)c2ccncc21 [Compound 102, N-(4-Methyl-3-(morpholinosulfonyl)phenyl)-4-(1-propyl-1H-pyrrolo[2,3-c]pyridin-3-yl)pyrimidin-2-amine] | showed anti-tumor activities | – | – | – | – | – | – | – | – | – | – | – | – | – | – | – | – | – | – |
| CCn1cc(-c2ccnc(Nc3cccc(S(N)(=O)=O)c3)n2)c2cccnc21 [Compound 18, 3-(4-(1-Ethyl-1H-pyrrolo[2,3-b]pyridin-3-yl)pyrimidin-2-ylamino)benzenesulfonamide] | – | 67.51% | 0.545 µg·h/mL | 0.543 µg·h/mL | 0.963 µg/mL | 4.98 min | 9.38 L/h/kg | 42 min | 40.2 min | 9.6 L/kg | 1.49 µg·h/mL | 1.47 µg·h/mL | 0.895 µg/mL | 34.8 min | 74.4 min | 100 min | This result showed that compound 18 has good oral availability and t 1/2 after oral administration. | 41.3% | 56.5% |
